The record followed here is paper PMC4980837 (Archiv der Pharmazie, 2013).

Where two headings read alike, the source gives them in different places.

The target in assay [1] is recombinant human PDE5 (Homo sapiens, UniProt O76074). The experiment in a line: PDE5 inhibition, IMAP FP phosphodiesterase assay. It counts as biochemical. The settings on record: for inhibition at 10 µM: read-out: PDE5 % inhibition at 10 μm.
The target of assay [2] is PDE1A (Homo sapiens, UniProt P54750). Nature of the assay: PDE selectivity array, PDE1A with cGMP as substrate. The note with it: for inhibition of cGMP hydrolysis by PDE1A (in words): at concentrations up to 50 μM.
Chain of PDE1A (P54750 whole entry, species assumed): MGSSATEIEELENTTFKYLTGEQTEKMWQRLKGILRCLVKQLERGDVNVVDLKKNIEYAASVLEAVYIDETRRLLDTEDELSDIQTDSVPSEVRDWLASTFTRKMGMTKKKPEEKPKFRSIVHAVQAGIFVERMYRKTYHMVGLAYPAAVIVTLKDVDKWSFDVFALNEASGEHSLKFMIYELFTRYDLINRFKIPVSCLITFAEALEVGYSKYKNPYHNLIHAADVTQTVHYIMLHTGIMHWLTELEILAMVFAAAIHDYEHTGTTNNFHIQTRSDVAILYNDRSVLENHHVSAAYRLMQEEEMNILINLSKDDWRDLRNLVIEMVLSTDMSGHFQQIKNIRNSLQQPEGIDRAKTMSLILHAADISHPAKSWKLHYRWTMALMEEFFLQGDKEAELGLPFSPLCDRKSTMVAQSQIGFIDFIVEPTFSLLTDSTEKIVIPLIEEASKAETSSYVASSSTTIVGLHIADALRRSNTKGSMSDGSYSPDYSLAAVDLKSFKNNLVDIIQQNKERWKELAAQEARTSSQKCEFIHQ
In assay [3] the target is PDE2A (Homo sapiens, UniProt O00408). The experiment in a line: PDE selectivity array, PDE2A with cGMP as substrate. The note with it: for inhibition of cGMP hydrolysis by PDE2A (in words): at concentrations up to 50 μM.
Chain of PDE2A (O00408 whole entry, species assumed): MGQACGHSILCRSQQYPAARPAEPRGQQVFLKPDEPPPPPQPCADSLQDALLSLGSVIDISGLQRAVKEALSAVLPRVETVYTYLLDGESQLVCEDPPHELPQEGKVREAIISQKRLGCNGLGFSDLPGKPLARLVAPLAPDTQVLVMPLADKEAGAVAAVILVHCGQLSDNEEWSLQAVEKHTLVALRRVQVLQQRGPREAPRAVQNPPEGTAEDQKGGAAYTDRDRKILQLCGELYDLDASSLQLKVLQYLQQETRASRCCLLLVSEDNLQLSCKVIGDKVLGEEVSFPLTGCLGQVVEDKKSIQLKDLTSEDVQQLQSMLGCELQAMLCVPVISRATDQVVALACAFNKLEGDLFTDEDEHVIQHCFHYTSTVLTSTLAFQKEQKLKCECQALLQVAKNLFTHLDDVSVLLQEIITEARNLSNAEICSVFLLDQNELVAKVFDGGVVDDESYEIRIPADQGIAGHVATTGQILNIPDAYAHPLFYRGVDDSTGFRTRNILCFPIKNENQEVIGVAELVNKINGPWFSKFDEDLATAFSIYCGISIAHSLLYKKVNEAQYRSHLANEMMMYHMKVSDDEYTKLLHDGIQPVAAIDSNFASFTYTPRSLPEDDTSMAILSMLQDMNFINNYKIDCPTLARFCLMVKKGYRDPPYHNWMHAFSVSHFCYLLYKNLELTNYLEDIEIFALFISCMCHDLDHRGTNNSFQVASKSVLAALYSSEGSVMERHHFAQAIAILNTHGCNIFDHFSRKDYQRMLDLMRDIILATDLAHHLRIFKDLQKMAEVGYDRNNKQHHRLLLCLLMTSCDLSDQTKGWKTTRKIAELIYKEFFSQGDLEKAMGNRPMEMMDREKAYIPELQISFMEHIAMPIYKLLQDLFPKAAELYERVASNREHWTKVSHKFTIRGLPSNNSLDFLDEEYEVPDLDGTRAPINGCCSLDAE
Assay [4] has as its target PDE3A (Homo sapiens, UniProt Q14432). Nature of the assay: PDE selectivity array, PDE3A with cGMP as substrate. The settings on record: for inhibition of cGMP hydrolysis by PDE3A (in words): at concentrations up to 50 μM.
The target in assay [5] is PDE9A (Homo sapiens, UniProt O76083). The experiment in a line: PDE selectivity array, PDE9A with cGMP as substrate. The settings on record: for inhibition of cGMP hydrolysis by PDE9A (in words): at concentrations up to 50 μM.
Chain of PDE9A (O76083 whole entry, species assumed): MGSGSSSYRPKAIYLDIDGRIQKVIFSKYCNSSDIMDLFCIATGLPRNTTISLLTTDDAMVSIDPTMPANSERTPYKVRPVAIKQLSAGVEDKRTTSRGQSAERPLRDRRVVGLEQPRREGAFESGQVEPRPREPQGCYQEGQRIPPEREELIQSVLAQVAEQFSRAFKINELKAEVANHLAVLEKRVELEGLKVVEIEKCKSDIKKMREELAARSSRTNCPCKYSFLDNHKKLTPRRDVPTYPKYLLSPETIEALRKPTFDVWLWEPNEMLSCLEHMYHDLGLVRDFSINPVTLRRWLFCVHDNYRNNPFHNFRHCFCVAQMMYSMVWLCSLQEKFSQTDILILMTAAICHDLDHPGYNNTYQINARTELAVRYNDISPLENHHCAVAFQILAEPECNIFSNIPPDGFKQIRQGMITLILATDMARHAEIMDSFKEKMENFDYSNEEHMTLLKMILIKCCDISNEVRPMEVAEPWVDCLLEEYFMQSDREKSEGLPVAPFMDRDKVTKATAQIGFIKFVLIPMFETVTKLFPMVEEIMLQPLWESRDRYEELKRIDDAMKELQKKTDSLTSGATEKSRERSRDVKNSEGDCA
Assay [6] has as its target PDE10A (Homo sapiens, UniProt Q9Y233). The experiment in a line: PDE selectivity array, PDE10A with cGMP as substrate. The note with it: for inhibition of cGMP hydrolysis by PDE10A (in words): at concentrations up to 50 μM.
In assay [7] the target is PDE11A (Homo sapiens, UniProt Q9HCR9). The experiment in a line: PDE selectivity array, PDE11A with cGMP and cAMP as substrates. The settings on record: for IC50: 10 concentrations, double replicates.
Chain of PDE11A (Q9HCR9 whole entry, species assumed): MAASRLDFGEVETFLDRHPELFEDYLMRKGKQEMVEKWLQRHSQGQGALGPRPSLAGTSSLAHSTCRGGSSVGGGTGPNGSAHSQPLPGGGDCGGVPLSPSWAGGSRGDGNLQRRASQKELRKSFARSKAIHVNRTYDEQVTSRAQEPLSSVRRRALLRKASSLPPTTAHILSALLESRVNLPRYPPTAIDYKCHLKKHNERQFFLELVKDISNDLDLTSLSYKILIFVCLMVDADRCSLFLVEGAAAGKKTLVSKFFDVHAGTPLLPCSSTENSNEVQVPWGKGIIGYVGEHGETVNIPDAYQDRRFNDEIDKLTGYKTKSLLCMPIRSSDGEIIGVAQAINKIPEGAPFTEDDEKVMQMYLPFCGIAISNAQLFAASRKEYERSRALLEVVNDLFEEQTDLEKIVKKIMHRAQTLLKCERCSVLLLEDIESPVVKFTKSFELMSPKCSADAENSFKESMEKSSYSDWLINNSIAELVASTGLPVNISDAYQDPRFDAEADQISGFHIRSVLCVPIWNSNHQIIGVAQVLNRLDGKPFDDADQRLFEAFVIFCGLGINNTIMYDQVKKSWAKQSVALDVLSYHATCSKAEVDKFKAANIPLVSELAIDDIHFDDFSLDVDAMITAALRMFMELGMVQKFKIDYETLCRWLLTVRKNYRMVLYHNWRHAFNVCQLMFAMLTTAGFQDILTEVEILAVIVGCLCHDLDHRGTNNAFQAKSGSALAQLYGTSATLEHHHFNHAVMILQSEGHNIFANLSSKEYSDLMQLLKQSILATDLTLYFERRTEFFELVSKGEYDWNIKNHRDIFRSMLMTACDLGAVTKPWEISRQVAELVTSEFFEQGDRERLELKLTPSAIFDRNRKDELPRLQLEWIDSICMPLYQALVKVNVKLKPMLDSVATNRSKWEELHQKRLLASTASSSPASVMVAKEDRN
The mark [8] stands for this setting: IC50 PDE11A cAMP, substrate cAMP.
[9] abbreviates: IC50 PDE11A cGMP, substrate cGMP.

Chain of PDE10A (Q9Y233 whole entry, species assumed): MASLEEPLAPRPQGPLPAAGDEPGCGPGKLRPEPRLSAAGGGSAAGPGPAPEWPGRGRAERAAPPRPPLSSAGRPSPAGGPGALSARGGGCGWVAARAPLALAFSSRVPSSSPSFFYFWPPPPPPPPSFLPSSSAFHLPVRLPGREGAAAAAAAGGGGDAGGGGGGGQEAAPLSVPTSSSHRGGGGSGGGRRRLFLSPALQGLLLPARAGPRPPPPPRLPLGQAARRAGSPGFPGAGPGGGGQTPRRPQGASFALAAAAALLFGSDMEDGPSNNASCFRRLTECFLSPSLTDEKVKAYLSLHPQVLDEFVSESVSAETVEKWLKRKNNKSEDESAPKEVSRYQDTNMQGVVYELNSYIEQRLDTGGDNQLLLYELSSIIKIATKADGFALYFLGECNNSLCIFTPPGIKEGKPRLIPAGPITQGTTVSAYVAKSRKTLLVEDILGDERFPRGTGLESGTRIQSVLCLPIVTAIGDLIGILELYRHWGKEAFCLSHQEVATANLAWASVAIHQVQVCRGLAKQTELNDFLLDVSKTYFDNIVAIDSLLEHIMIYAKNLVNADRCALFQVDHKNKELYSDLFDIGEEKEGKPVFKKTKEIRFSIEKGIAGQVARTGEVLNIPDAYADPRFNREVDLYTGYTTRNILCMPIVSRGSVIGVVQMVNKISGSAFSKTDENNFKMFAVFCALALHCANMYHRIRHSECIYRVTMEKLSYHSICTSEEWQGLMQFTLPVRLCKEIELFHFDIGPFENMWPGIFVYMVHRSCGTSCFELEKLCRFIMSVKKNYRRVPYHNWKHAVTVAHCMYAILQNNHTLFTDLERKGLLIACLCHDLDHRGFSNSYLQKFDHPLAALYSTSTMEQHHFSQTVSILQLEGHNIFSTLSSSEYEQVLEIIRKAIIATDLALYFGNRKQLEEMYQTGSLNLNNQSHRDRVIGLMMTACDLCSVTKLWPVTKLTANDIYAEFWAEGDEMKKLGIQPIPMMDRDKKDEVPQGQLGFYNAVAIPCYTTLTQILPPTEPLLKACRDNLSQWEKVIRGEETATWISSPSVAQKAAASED

As to `COC(=O)c1cc2c([nH]c3ccccc32)c(-c2ccc(Br)s2)n1` [Compound 25, Methyl 1-(5-bromo-2-thienyl)-β-carboline-3-carboxylate], in assay [1] (SAR statement in text), the “PDE5 inhibition (in words)” value is “no PDE5 inhibition”. For the same compound, the inhibition at 10 µM in assay [1] is under 60%.

For `CCCCN1C(=O)[C@H]2Cc3c([nH]c4ccccc34)[C@@H](c3ccc(Br)s3)N2C1=O` [Compound 9, (5S,11aR) 5-(5-Bromo-2-thienyl)-2-butyl-5,6,11,11a-tetrahydro-1H-imidazo[1′,5 ′:1,6]pyrido[3,4-b]indole-1,3(2H)-dione], the half-inhibitory concentration (IC50) in assay [1] is 0.17 µM; in assay [2], over 50 µM; in assay [3], over 50 µM; in assay [4], over 50 µM; in assay [5], over 50 µM; in assay [6] it was over 50 µM. Further, the 50% inhibitory concentration (IC50) in assay [7] (setting [8]) was determined as 4 µM; in assay [7] (setting [9]), 2.3 µM. Besides, the inhibition at 10 µM in assay [1] was found to be 99%. Also, the “inhibition of cGMP hydrolysis by PDE1A (in words)” value (“inhibition … by PDE1A (in words)” below) in assay [2] is given as “lacked the ability to inhibit cGMP hydrolysis”. Also, the “inhibition of cGMP hydrolysis by PDE2A (in words)” value (from here on “inhibition … by PDE2A (in words)”) in assay [3] was “lacked the ability to inhibit cGMP hydrolysis”. Also, the “inhibition of cGMP hydrolysis by PDE3A (in words)” value (shortened to “inhibition … by PDE3A (in words)”) in assay [4] is reported as “lacked the ability to inhibit cGMP hydrolysis”. Further, in assay [5], the “inhibition of cGMP hydrolysis by PDE9A (in words)” value (“inhibition … by PDE9A (in words)” below) is recorded as “lacked the ability to inhibit cGMP hydrolysis”. In addition, the “inhibition of cGMP hydrolysis by PDE10A (in words)” value (from here on “inhibition … by PDE10A (in words)”) in assay [6] was “lacked the ability to inhibit cGMP hydrolysis”. In addition, the “Selectivity index IC50 (PDE11A/PDE5A) cGMP/cGMP” value in assay [7] (ratio of IC50 PDE11A to PDE5A, cGMP as substrate) came out at 14.

As for `CC(C)(C)N1C(=O)[C@@H]2Cc3c([nH]c4ccccc34)[C@@H](c3ccc(Br)s3)N2C1=O` [Compound 16, (5S,11aS) 5-(5-Bromo-2-thienyl)-2-tert-butyl-5,6,11,11a-tetrahydro-1H-imidazo[1′,5 ′:1,6]pyrido[3,4-b]indole-1,3(2H)-dione], the IC50 in assay [1] stood at 1 µM.

With `CCCCN1C(=O)[C@H]2Cc3c([nH]c4ccccc34)[C@H](c3ccc(Br)s3)N2C1=O` [Compound 10, (5R,11aR) 5-(5-Bromo-2-thienyl)-2-butyl-5,6,11,11a-tetrahydro-1H-imidazo[1′,5 ′:1,6]pyrido[3,4-b]indole-1,3(2H)-dione], the inhibition at 10 µM in assay [1] is under 60%.

`CCCCN1C(=O)[C@@H]2Cc3c([nH]c4ccccc34)[C@H](c3ccc(Br)s3)N2C1=O` [Compound 11, (5R,11aS) 5-(5-Bromo-2-thienyl)-2-butyl-5,6,11,11a-tetrahydro-1H-imidazo[1′,5 ′:1,6]pyrido[3,4-b]indole-1,3(2H)-dione]: in assay [1], the inhibition at 10 µM was under 60%.

In the case of `COC(=O)[C@@H]1Cc2c([nH]c3ccccc23)[C@@H](c2ccc(Br)s2)N1` [Compound 4, (1S,3S) Methyl 1-(5-bromo-2-thienyl)-2,3,4,9-tetrahydro-1H-β-carboline-3-carboxylate], the inhibition at 10 µM in assay [1] is under 60%.

`CC(C)(C)N1C(=O)[C@H]2Cc3c([nH]c4ccccc34)[C@H](c3ccc(Br)s3)N2C1=O` [Compound 14, (5R,11aR) 5-(5-Bromo-2-thienyl)-2-tert-butyl-5,6,11,11a-tetrahydro-1H-imidazo[1′,5 ′:1,6]pyrido[3,4-b]indole-1,3(2H)-dione]: the inhibition at 10 µM in assay [1] was under 60%.

Turning to `CCN1CC(=O)N2[C@H](c3ccc(Br)s3)c3[nH]c4ccccc4c3C[C@H]2C1=O` [Compound 24, (6S,12aS) 6-(5-Bromo-2-thienyl)-2-ethyl-2,3,6,7,12,12a-hexahydropyrazino[1′,2 ′:1,6]pyrido[3,4-b]indole-1,4-dione], in assay [1], the concentration for half-maximal inhibition (IC50) amounted to 1 µM and the inhibition at 10 µM stood at 87%.

`C=CCN1C(=O)[C@@H]2Cc3c([nH]c4ccccc34)[C@H](c3ccc(Br)s3)N2C1=O` [Compound 19, (5R,11aS) 5-(5-Bromo-2-thienyl)-2-allyl-5,6,11,11a-tetrahydro-1H-imidazo[1′,5 ′:1,6]pyrido[3,4-b]indole-1,3(2H)-dione]: the inhibition at 10 µM in assay [1] was under 60%.

Regarding `C=CCN1C(=O)[C@H]2Cc3c([nH]c4ccccc34)[C@H](c3ccc(Br)s3)N2C1=O` [Compound 18, (5R,11aR) 5-(5-Bromo-2-thienyl)-2-allyl-5,6,11,11a-tetrahydro-1H-imidazo[1′,5 ′:1,6]pyrido[3,4-b]indole-1,3(2H)-dione], the concentration for half-maximal inhibition (IC50) in assay [1] was found to be 5.4 µM.

As to `CCN1CC(=O)N2[C@H](c3ccc(Br)s3)c3[nH]c4ccccc4c3C[C@@H]2C1=O` [Compound 23, (6S,12aR) 6-(5-Bromo-2-thienyl)-2-ethyl-2,3,6,7,12,12a-hexahydropyrazino[1′,2 ′:1,6]pyrido[3,4-b]indole-1,4-dione], in assay [1], the IC50 turned out to be 1.71 µM and the inhibition at 10 µM turned out to be 81%.

With `COC(=O)[C@H]1Cc2c([nH]c3ccccc23)[C@@H](c2ccc(Br)s2)N1` [Compound 1, (1S,3R) Methyl 1-(5-bromo-2-thienyl)-2,3,4,9-tetrahydro-1H-β-carboline-3-carboxylate], in assay [1], the inhibition at 10 µM is under 60%.

With `COC(=O)[C@@H]1Cc2c([nH]c3ccccc23)[C@H](c2ccc(Br)s2)N1` [Compound 3, (1R,3S) Methyl 1-(5-bromo-2-thienyl)-2,3,4,9-tetrahydro-1H-β-carboline-3-carboxylate], in assay [1], the inhibition at 10 µM was under 60%.

`CCCCN1C(=O)[C@@H]2Cc3c([nH]c4ccccc34)[C@@H](c3ccc(Br)s3)N2C1=O` [Compound 12, (5S,11aS) 5-(5-Bromo-2-thienyl)-2-butyl-5,6,11,11a-tetrahydro-1H-imidazo[1′,5 ′:1,6]pyrido[3,4-b]indole-1,3(2H)-dione]: in assay [1], the concentration for half-maximal inhibition (IC50) was determined as 0.47 µM and the inhibition at 10 µM is 92%.

For the compound `C=CCN1C(=O)[C@H]2Cc3c([nH]c4ccccc34)[C@@H](c3ccc(Br)s3)N2C1=O` [Compound 17, (5S,11aR) 5-(5-Bromo-2-thienyl)-2-allyl-5,6,11,11a-tetrahydro-1H-imidazo[1′,5 ′:1,6]pyrido[3,4-b]indole-1,3(2H)-dione], the half-inhibitory concentration (IC50) in assay [1] was determined as 0.29 µM.

For the compound `CCN1C(=O)[C@@H]2Cc3c([nH]c4ccccc34)[C@@H](c3ccc(Br)s3)N2C1=O` [Compound 8, (5S,11aS) 5-(5-Bromo-2-thienyl)-2-ethyl-5,6,11,11a-tetrahydro-1H-imidazo[1′,5 ′:1,6]pyrido[3,4-b]indole-1,3(2H)-dione], the IC50 in assay [1] (read-out: PDE5 inhibition IC50, 10 concentrations, each with double replicates) is 0.16 µM; in assay [2], over 50 µM; in assay [3], over 50 µM; in assay [4], over 50 µM; in assay [5], over 50 µM; in assay [6], over 50 µM. Further, the half-maximal inhibitory concentration (IC50) was found to be 11.3 µM in assay [7] (setting [8]) and 7.8 µM in assay [7] (setting [9]). Further, the “inhibition … by PDE1A (in words)” value in assay [2] is reported as “lacked the ability to inhibit cGMP hydrolysis”. The “inhibition … by PDE2A (in words)” value in assay [3] is given as “lacked the ability to inhibit cGMP hydrolysis”. For the same compound, the “inhibition … by PDE3A (in words)” value in assay [4] is given as “lacked the ability to inhibit cGMP hydrolysis”. For the same compound, the “inhibition … by PDE9A (in words)” value in assay [5] is given as “lacked the ability to inhibit cGMP hydrolysis”. Moreover, the “inhibition … by PDE10A (in words)” value in assay [6] is on record as “lacked the ability to inhibit cGMP hydrolysis”.

Consider `COC(=O)[C@H]1Cc2c([nH]c3ccccc23)[C@H](c2ccc(Br)s2)N1` [Compound 2, (1R,3R) Methyl 1-(5-bromo-2-thienyl)-2,3,4,9-tetrahydro-1H-β-carboline-3-carboxylate], for which the inhibition at 10 µM in assay [1] is under 60%.

In the case of `CC(C)(C)N1C(=O)[C@H]2Cc3c([nH]c4ccccc34)[C@@H](c3ccc(Br)s3)N2C1=O` [Compound 13, (5S,11aR) 5-(5-Bromo-2-thienyl)-2-tert-butyl-5,6,11,11a-tetrahydro-1H-imidazo[1′,5 ′:1,6]pyrido[3,4-b]indole-1,3(2H)-dione], in assay [1], the half-inhibitory concentration (IC50) amounted to 0.39 µM and the inhibition at 10 µM is 97%.

Turning to `CN1CC(=O)N2[C@H](c3ccc4c(c3)OCO4)c3[nH]c4ccccc4c3C[C@@H]2C1=O` [Tadalafil, tadalafil, reference compound], in assay [2], the concentration for half-maximal inhibition (IC50) was over 50 µM and the “inhibition … by PDE1A (in words)” value is “lacked the ability to inhibit cGMP hydrolysis”. For the same compound, in assay [3], the half-maximal inhibitory concentration (IC50) was over 50 µM and the “inhibition … by PDE2A (in words)” value is on record as “lacked the ability to inhibit cGMP hydrolysis”. In addition, in assay [4], the concentration for half-maximal inhibition (IC50) was over 50 µM and the “inhibition … by PDE3A (in words)” value is recorded as “lacked the ability to inhibit cGMP hydrolysis”. Moreover, in assay [5], the IC50 is over 50 µM and the “inhibition … by PDE9A (in words)” value is “lacked the ability to inhibit cGMP hydrolysis”. Also, in assay [6], the IC50 is over 50 µM and the “inhibition … by PDE10A (in words)” value is given as “lacked the ability to inhibit cGMP hydrolysis”.

Turning to `CC(C)(C)N1C(=O)[C@@H]2Cc3c([nH]c4ccccc34)[C@H](c3ccc(Br)s3)N2C1=O` [Compound 15, (5R,11aS) 5-(5-Bromo-2-thienyl)-2-tert-butyl-5,6,11,11a-tetrahydro-1H-imidazo[1′,5 ′:1,6] pyrido[3,4-b]indole-1,3(2H)-dione], the inhibition at 10 µM in assay [1] is under 60%.

Turning to `C=CCN1C(=O)[C@@H]2Cc3c([nH]c4ccccc34)[C@@H](c3ccc(Br)s3)N2C1=O` [Compound 20, (5S,11aS) 5-(5-Bromo-2-thienyl)-2-allyl-5,6,11,11a-tetrahydro-1H-imidazo[1′,5 ′:1,6]pyrido[3,4-b]indole-1,3(2H)-dione], in assay [1], the 50% inhibitory concentration (IC50) worked out at 0.32 µM and the inhibition at 10 µM was 97%.

A word on the inhibition: it is how much of the control response was suppressed. What is called IC50 is the concentration needed to halve the response being measured.
